From patent publication US10479786B2, “Protein kinase inhibitors” (Princeton Drug Discovery Inc, priority 2016, dated 2019)

Tests used:
EGFR(T790M) = molecular target: T1, EGFR(T790M) (Homo sapiens, UniProt P00533, T790M); assay: Off-chip Mobility Shift Assay, kinase inhibition; format: biochemical; conditions: at 10 nM; recombinant EGFR(T790M)
T1 construct: purchased Carna Biosciences, Inc

KIT(V560G) = molecular target: T2, KIT(V560G) (Homo sapiens, UniProt P10721, V560G); assay: Off-chip Mobility Shift Assay, kinase inhibition; format: biochemical; conditions: recombinant KIT(V560G); for inhibition at 0.01 µM: at 10 nM
T2 construct: purchased Carna Biosciences, Inc

p38β = molecular target: T3, p38β (Homo sapiens, UniProt Q15759); assay: Off-chip Mobility Shift Assay, kinase inhibition; format: biochemical; conditions: recombinant p38β; for inhibition at 0.01 µM: at 10 nM
T3 construct: purchased Carna Biosciences, Inc

p38α = molecular target: T4, p38α (Homo sapiens, UniProt Q16539); assay: Off-chip Mobility Shift Assay, kinase inhibition; format: biochemical; conditions: recombinant p38α; for inhibition at 0.01 µM: at 10 nM
T4 construct: purchased Carna Biosciences, Inc

KIT = molecular target: T5, KIT (Homo sapiens, UniProt P10721); assay: Off-chip Mobility Shift Assay, kinase inhibition; format: biochemical; conditions: recombinant KIT; for inhibition at 0.01 µM: at 10 nM
T5 construct: purchased Carna Biosciences, Inc

EGFR(L861Q) = molecular target: T6, EGFR(L861Q) (Homo sapiens, UniProt P00533, L861Q); assay: Off-chip Mobility Shift Assay, kinase inhibition; format: biochemical; conditions: at 10 nM; recombinant EGFR(L861Q)
T6 construct: purchased Carna Biosciences, Inc

RAF1 = molecular target: T7, RAF1 (Homo sapiens, UniProt P04049, Y340D/Y341D); assay: Off-chip Mobility Shift Assay, kinase inhibition; format: biochemical; conditions: recombinant RAF1; for inhibition at 0.01 µM: at 10 nM
T7 construct: purchased Carna Biosciences, Inc

EGFR = molecular target: T8, EGFR (Homo sapiens, UniProt P00533); assay: Off-chip Mobility Shift Assay, kinase inhibition; format: biochemical; conditions: recombinant EGFR; for inhibition at 0.01 µM: at 10 nM
T8 construct: purchased Carna Biosciences, Inc

RET(G691 S) = molecular target: T9, RET(G691 S) (Homo sapiens, UniProt P07949, G691S); assay: Off-chip Mobility Shift Assay, kinase inhibition; format: biochemical; conditions: at 10 nM; recombinant RET(G691 S)
T9 construct: purchased Carna Biosciences, Inc

FYN(isoform b) = molecular target: T10, FYN(isoform b) (Homo sapiens, UniProt P06241); assay: Off-chip Mobility Shift Assay, kinase inhibition; format: biochemical; conditions: recombinant FYN(isoform b)
T10 construct: purchased Carna Biosciences, Inc

YES(T348I) = molecular target: T11, YES(T348I) (Homo sapiens, UniProt P07947, T348I); assay: Off-chip Mobility Shift Assay, kinase inhibition; format: biochemical; conditions: recombinant YES(T348I)
T11 construct: purchased Carna Biosciences, Inc

PDGFRα(T674I) = molecular target: T12, PDGFRα(T674I) (Homo sapiens, UniProt P16234, T674I); assay: Off-chip Mobility Shift Assay, kinase inhibition; format: biochemical; conditions: at 10 nM; recombinant PDGFRα(T674I)
T12 construct: purchased Carna Biosciences, Inc

RET = molecular target: T13, RET (Homo sapiens, UniProt P07949); assay: Off-chip Mobility Shift Assay, kinase inhibition; format: biochemical; conditions: at 10 nM; recombinant RET
T13 construct: purchased Carna Biosciences, Inc

RET(Y791F) = molecular target: T14, RET(Y791F) (Homo sapiens, UniProt P07949, Y791F); assay: Off-chip Mobility Shift Assay, kinase inhibition; format: biochemical; conditions: at 10 nM; recombinant RET(Y791F)
T14 construct: purchased Carna Biosciences, Inc

PDGFRα(V561D) = molecular target: T15, PDGFRα(V561D) (Homo sapiens, UniProt P16234, V561D); assay: Off-chip Mobility Shift Assay, kinase inhibition; format: biochemical; conditions: at 10 nM; recombinant PDGFRα(V561D)
T15 construct: purchased Carna Biosciences, Inc

HER4 = molecular target: T16, HER4 (Homo sapiens, UniProt Q15303); assay: Off-chip Mobility Shift Assay, kinase inhibition; format: biochemical; conditions: at 10 nM; recombinant HER4
T16 construct: purchased Carna Biosciences, Inc

HER2 = molecular target: T17, HER2 (Homo sapiens, UniProt P04626); assay: Off-chip Mobility Shift Assay, kinase inhibition; format: biochemical; conditions: recombinant HER2; for inhibition at 0.01 µM: at 10 nM
T17 construct: purchased Carna Biosciences, Inc

BRAF = molecular target: T18, BRAF (Homo sapiens, UniProt P15056); assay: Off-chip Mobility Shift Assay, kinase inhibition; format: biochemical; conditions: recombinant BRAF; for inhibition at 0.01 µM: at 10 nM
T18 construct: purchased Carna Biosciences, Inc

[1] = Pharmacokinetics in Sprague-Dawley rats, 2-in-1 dosing; format: in vivo; conditions: rat; for V: intravenous 1 mg/kg
Procedure: Sprague-Dawley rats (approximate weight 275-300 g, N=3) were dosed intravenously at 5 mL/kg and orally at 10 mL/kg with the above dosing solutions. Blood samples were collected into tubes containing EDTA as the anticoagulant at 0, 0.25 (intravenous only), 0.5, 1, 2, 4, 8, 10, and 24 h post-dosing, and plasma samples were prepared by centrifugation. The plasma samples were mixed with 3× volumes of acetonitrile containing 100 nM reserpine as the internal standard, and centrifuged at 4000 RPM for 15 min. The supernatants were injected for LC/MS analysis which were carried out on a AB Sciex 4000 Q Trap LC/MS/MS system coupled with Shimadzu Prominence UFLCXR 20 series (including a CBM-20A controller, two LC-20ADXR solvent delivery units, SIL-20AC HT autosampler, CTO-20A column oven, and a SPD-20A UV detector). The samples were separated on a Phenomenex Columbus column (C18, 4 μm, 50×2 mm) eluted with two solvent systems: 2 mM ammonium acetate in water containing 0.1% formic acid (A) and methanol (B) at a linear gradient starting with 25% B. Electrospray ionization in positive mode was used to acquire LC/MS/MS data.

[2] = Lung tissue and plasma concentration ratios in mice; format: in vivo, CD-1 mouse; conditions: single oral dose 5 mg/kg, 2-in-1 with dasatinib, all time points tested
Procedure: CD-1 mouse (approximate weight 30 g, N=3) were dosed by oral gavage at 10 mL/kg. Blood samples were collected into tubes containing EDTA as the anticoagulant at 1, 2, 4, 10 h post-dosing for Compound X, and predose, 1, 2, 3, 8, 10 and 24 h post-dosing for Compound XI. The plasma samples were prepared by centrifugation. Lung samples were also collected at each of the above time points. The lung samples were homogenated in 4× distilled water (v/w). The plasma samples and the homogenated lung tissue samples were mixed with 3× volumes of acetonitrile containing 100 nM reserpine as the internal standard, and centrifuged at 4000 RPM for 15 min. The supernatants were injected for LC/MS analysis which were carried out on a AB Sciex 4000 Q Trap LC/MS/MS system coupled with Shimadzu Prominence UFLCXR 20 series (including a CBM-20A controller, two LC-20ADXR solvent delivery units, SIL-20AC HT autosampler, CTO-20A column oven, and a SPD-20A UV detector). The samples were separated on a Phenomenex Columbus column (C18, 4 μm, 50×2 mm) eluted with two solvent systems: 2 mM ammonium acetate in water containing 0.1% formic acid (A) and methanol (B) at a linear gradient starting at 25%. Electrospray ionization in positive mode was used to acquire LC/MS/MS data.

[3] = Table 2, co-dosed with compound IV
[4] = Table 3, co-dosed with compound X

T8 sequence (P00533 25-1210): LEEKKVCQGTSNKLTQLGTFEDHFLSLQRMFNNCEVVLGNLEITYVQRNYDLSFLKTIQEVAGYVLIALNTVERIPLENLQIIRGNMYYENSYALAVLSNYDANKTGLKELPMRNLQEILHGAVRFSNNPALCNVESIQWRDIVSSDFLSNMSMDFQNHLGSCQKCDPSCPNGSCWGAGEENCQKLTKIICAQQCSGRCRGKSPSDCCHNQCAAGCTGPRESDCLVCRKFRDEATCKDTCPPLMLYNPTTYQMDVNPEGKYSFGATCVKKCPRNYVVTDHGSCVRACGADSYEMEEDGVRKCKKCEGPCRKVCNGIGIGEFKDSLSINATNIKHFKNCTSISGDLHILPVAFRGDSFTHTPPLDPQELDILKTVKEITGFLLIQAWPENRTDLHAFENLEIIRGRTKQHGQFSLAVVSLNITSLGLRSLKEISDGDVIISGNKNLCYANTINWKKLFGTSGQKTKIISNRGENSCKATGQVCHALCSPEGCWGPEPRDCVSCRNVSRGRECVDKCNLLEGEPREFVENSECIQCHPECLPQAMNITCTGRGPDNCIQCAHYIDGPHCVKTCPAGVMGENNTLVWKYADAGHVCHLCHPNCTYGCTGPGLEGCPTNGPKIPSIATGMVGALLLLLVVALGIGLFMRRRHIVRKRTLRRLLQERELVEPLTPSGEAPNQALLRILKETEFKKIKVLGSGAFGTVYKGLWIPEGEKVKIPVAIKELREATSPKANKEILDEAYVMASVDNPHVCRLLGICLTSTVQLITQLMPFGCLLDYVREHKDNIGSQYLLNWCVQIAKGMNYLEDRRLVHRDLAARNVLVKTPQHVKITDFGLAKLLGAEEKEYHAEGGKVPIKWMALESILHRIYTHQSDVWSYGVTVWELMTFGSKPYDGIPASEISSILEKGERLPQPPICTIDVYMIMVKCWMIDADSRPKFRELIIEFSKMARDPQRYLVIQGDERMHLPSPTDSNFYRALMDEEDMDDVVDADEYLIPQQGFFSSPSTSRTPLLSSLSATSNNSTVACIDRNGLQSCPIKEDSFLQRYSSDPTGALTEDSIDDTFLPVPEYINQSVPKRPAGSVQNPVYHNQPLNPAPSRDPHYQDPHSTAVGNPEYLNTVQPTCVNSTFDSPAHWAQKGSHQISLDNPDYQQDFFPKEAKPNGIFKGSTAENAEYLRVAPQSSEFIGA
T3 sequence (Q15759 whole entry): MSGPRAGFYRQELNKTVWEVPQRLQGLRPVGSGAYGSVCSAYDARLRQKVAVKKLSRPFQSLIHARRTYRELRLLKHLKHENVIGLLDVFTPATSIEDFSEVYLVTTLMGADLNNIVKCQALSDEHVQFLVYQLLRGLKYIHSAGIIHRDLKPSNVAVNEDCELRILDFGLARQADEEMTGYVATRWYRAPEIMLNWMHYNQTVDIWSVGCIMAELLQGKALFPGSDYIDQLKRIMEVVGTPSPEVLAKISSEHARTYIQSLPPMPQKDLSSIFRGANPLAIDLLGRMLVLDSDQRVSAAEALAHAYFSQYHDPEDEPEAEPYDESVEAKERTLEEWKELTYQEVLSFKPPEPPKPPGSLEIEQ
T4 sequence (Q16539 whole entry): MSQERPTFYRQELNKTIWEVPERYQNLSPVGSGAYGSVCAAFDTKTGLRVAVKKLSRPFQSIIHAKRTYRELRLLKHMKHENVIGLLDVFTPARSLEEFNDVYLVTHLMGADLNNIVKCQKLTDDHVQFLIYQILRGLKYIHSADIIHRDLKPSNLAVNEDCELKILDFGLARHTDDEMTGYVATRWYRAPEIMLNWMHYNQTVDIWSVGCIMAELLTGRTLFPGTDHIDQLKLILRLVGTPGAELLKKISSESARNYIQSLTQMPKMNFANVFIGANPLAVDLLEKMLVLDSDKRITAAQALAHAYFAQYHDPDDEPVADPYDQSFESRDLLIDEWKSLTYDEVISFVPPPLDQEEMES
T2 sequence (P10721 26-976 V560G): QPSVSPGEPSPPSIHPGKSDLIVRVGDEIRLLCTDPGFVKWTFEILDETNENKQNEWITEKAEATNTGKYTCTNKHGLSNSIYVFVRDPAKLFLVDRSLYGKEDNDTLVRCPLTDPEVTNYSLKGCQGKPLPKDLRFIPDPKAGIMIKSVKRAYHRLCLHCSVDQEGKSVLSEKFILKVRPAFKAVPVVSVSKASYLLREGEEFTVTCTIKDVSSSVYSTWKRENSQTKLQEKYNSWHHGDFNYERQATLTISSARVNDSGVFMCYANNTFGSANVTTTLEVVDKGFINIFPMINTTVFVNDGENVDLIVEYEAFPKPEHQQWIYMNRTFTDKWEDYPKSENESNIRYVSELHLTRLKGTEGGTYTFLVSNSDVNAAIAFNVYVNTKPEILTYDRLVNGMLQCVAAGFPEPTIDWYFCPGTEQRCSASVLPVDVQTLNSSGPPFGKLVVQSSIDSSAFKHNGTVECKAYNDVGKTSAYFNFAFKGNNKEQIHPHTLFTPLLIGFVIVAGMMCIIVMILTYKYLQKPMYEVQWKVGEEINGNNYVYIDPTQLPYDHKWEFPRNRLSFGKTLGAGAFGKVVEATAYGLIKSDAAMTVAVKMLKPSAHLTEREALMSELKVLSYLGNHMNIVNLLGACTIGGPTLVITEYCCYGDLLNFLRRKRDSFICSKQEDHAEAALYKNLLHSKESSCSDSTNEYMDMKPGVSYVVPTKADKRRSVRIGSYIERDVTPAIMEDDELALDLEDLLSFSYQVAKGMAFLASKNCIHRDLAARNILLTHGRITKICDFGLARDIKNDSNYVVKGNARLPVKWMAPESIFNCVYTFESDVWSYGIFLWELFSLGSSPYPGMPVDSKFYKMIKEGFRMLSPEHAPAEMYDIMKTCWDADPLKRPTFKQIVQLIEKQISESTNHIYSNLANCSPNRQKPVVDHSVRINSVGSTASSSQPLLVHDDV
T18 sequence (P15056 whole entry): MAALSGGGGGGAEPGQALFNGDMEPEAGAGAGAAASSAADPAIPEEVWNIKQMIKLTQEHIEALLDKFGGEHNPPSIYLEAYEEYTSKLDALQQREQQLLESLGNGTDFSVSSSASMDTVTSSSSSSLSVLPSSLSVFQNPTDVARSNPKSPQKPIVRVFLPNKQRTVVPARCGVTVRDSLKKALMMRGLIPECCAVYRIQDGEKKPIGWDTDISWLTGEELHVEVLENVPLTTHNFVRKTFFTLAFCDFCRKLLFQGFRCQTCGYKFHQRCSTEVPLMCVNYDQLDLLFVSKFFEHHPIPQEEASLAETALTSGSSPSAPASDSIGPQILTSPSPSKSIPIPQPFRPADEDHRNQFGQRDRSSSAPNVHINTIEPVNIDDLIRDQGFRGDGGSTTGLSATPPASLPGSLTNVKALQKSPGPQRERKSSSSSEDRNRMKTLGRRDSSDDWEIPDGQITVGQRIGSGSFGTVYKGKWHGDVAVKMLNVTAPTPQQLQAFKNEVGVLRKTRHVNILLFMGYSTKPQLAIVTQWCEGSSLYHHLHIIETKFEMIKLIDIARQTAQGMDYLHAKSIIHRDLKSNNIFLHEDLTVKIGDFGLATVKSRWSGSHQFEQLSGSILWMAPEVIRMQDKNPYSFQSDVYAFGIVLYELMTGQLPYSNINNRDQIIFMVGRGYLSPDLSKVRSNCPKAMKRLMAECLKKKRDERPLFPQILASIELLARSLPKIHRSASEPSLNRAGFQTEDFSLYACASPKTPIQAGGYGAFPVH
T5 sequence (P10721 26-976): as the sequence (P10721 26-976 V560G) above, with G535V counted along it
T7 sequence (P04049 306-648 Y340D/Y341D limits assumed): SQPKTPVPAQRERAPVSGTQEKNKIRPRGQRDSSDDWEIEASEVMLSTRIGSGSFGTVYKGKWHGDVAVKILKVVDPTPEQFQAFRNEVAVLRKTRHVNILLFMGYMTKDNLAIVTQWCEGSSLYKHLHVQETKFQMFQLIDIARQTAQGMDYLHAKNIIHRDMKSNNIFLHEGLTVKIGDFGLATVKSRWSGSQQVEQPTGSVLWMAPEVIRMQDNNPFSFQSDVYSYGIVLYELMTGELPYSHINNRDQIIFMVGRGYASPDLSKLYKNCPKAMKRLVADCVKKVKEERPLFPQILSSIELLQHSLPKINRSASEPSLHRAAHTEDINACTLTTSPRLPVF
T10 sequence (P06241 1-534 isoform P06241-2): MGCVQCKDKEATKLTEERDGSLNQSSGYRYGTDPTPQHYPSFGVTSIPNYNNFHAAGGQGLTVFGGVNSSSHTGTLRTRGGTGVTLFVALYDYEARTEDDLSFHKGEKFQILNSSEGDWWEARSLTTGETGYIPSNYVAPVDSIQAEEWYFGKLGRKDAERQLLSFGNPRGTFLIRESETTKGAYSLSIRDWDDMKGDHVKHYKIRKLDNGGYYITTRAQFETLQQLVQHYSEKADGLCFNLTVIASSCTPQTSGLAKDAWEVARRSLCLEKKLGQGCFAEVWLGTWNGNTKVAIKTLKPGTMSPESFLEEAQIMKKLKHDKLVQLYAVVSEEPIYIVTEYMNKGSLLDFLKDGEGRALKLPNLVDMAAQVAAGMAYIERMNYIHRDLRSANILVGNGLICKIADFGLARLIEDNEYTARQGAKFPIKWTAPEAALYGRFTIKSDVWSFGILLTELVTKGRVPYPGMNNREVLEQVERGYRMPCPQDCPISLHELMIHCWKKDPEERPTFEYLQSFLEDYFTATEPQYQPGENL

SMILES	inhibition at 0.01 µM (KIT(V560G)) [%]	inhibition at 0.01 µM (p38β) [%]	inhibition at 0.01 µM (p38α) [%]	inhibition at 0.01 µM (KIT) [%]	inhibition at 0.01 µM (RAF1) [%]	inhibition at 0.01 µM (EGFR) [%]	inhibition at 0.01 µM (HER2) [%]	inhibition at 0.01 µM (BRAF) [%]	intravenous plasma clearance compared to dasatinib and compound III [1]	intravenous volume of distribution compared to dasatinib and compound III [1]	V [1, 3] [L/kg]	ratio of lung tissue concentration to plasma concentration, compared to dasatinib [2]	V [1, 4] [L/kg]	other results
[2H]c1cc(C)c(NC(=O)c2cnc(Nc3cc(N4CCCCC4)nc(C)n3)s2)c(Cl)c1 [Compound I, N-(2-chloro-4-deuterio-6-methyl-phenyl)-2-[[2-methyl-6-(1-piperidyl)pyrimidin-4-yl]amino]thiazole-5-carboxamide]	< 50	< 50	< 50	< 50	< 50	< 50	< 50	< 50						inhibition at 0.01 µM (EGFR(T790M)): < 50%; inhibition at 0.01 µM (EGFR(L861Q)): < 50%; inhibition at 0.01 µM (RET(G691 S)): < 50%; inhibition at 0.01 µM (FYN(isoform b); at 10 nM): > 50%; inhibition at 0.01 µM (YES(T348I); at 10 nM): < 50%; inhibition at 0.01 µM (PDGFRα(T674I)): < 50%; inhibition at 0.01 µM (RET): < 50%; inhibition at 0.01 µM (RET(Y791F)): < 50%; inhibition at 0.01 µM (PDGFRα(V561D)): < 50%; inhibition at 0.01 µM (HER4): < 50%
[2H]c1cc(C)c(NC(=O)c2cnc(Nc3cc(N4CCC(O)CC4)nc(C)n3)s2)c(Cl)c1 [Compound II, N-(2-chloro-4-deuterio-6-methyl-phenyl)-2-[[6-(4-hydroxy-1-piperidyl)-2-methyl-pyrimidin-4-yl]amino]thiazole-5-carboxamide]	> 50	< 50	< 50	> 50	< 50	< 50	< 50	< 50						inhibition at 0.001 µM (KIT(V560G); at 1 nM): < 50%; inhibition at 0.1 µM (KIT(V560G); at 100 nM): > 50%; inhibition at 0.001 µM (p38β; at 1 nM): < 50%; inhibition at 0.1 µM (p38β; at 100 nM): < 50%; inhibition at 0.001 µM (p38α; at 1 nM): < 50%; inhibition at 0.1 µM (p38α; at 100 nM): < 50%; inhibition at 0.001 µM (KIT; at 1 nM): < 50%; inhibition at 0.1 µM (KIT; at 100 nM): > 50%; inhibition at 0.001 µM (RAF1; at 1 nM): < 50%; inhibition at 0.1 µM (RAF1; at 100 nM): < 50%; inhibition at 0.001 µM (EGFR; at 1 nM): < 50%; inhibition at 0.1 µM (EGFR; at 100 nM): > 50%; inhibition at 0.001 µM (FYN(isoform b); at 1 nM): > 50%; inhibition at 0.001 µM (YES(T348I); at 1 nM): < 50%; inhibition at 0.001 µM (HER2; at 1 nM): < 50%; inhibition at 0.1 µM (HER2; at 100 nM): < 50%; inhibition at 0.001 µM (BRAF; at 1 nM): < 50%; inhibition at 0.1 µM (BRAF; at 100 nM): < 50%
[2H]c1cc(C)c(NC(=O)c2cnc(Nc3cc(N4CC[C@H](O)C4)nc(C)n3)s2)c(Cl)c1 [Compound IV, N-(2-chloro-4-deutero-6-methylphenyl)-2-[[2-methyl-6-((S)-3-hydroxypyrrolidin-1-yl)pyrimidin-4-yl]amino]thiazole-5-carboxamide]									much lower intravenous plasma clearance	significantly lower intravenous volume of distribution values	1 ± 0			
[2H]c1cc(C)c(NC(=O)c2cnc(Nc3cc(N4CC[C@@H](O)C4)nc(C)n3)s2)c(Cl)c1 [Compound V, N-(2-chloro-4-deutero-6-methylphenyl)-2-[[2-methyl-6-((R)-3-hydroxypyrrolidin-1-yl)pyrimidin-4-yl]amino]thiazole-5-carboxamide]									much lower intravenous plasma clearance	significantly lower intravenous volume of distribution values	1 ± 0			
Cc1nc(Nc2ncc(C(=O)Nc3c(C)cccc3Cl)s2)cc(N2CC[C@H](O)C2)n1 [Compound X, N-(2-chloro-6-methylphenyl)-2-[[2-methyl-6-((S)-3-hydroxypyrrolidin-1-yl)pyrimidin-4-yl]amino]thiazole-5-carboxamide]									much lower intravenous plasma clearance	significantly lower intravenous volume of distribution values		significantly lower ratios	1 ± 0	F, percent oral bioavailability ([1]; PO 5 mg/kg versus intravenous 1 mg/kg, AUCinf dose normalized, Table 3): 18.9±2%
Cc1nc(Nc2ncc(C(=O)Nc3c(C)cccc3Cl)s2)cc(N2CC[C@@H](O)C2)n1 [Compound XI, N-(2-chloro-6-methylphenyl)-2-[[2-methyl-6-((R)-3-hydroxypyrrolidin-1-yl)pyrimidin-4-yl]amino]thiazole-5-carboxamide]									much lower intravenous plasma clearance	significantly lower intravenous volume of distribution values		significantly lower ratios	1 ± 0	
